Tested on: chronic plaque psoriasis
Assay: Topical treatment of chronic plaque psoriasis in humans, once a day
Assay type: in vivo
Details: topical application of 0.01 to 1% w/w once a day

| Compound | Efficacy in the treatment of chronic plaque psoriasis |
| --- | --- |
| CC[C@@H]1/C=C(\C)C[C@H](C)C[C@H](OC)[C@H]2O[C@@](O)(C(=O)C(=O)N3CCCC[C@H]3C(=O)O[C@H](/C(C)=C/[C@@H]3CC[C@@H](O)[C@H](OC)C3)[C@H](C)[C@@H](O)CC1=O)[C@H](C)C[C@@H]2OC (relative stereo) [Compound 3, [3S-[3R*[E(1S*,3S*,4S*)],4S*,5R*,8S*,9E,12R*,14R*,15S*,16R*,18S*,-19S*,26aR*]]-5,6,8,11,12,13,14,15,16,17,18,19,24,25,26,26a-hexadecahydro-5,19-dihydroxy-3-[2-(4-hydroxy-3-methoxy-cyclohexyl)-1-methylethenyl)]-14,16-dimethoxy4,10,12,18,-tetramethyl-8-ethyl-15,19-epoxy-3H-pyrido[2,1-c][1,4]oxaazacyclotricosine-1,7,20,21(4H,23H)-tetrone] | effective |
| [3S-[3R*[E(1S*,3S*,4S*)],4S*,5R*,8S*,9E,12R*,-14R*,15S*,16R*,18S*,19S*,26aR*]]-5,6,8,11,12,13,14,15,16,17,18,19,24,25,26,26a-hexadecahydro-5,19-dihydroxy-3-(3-hydroxymethylcyclopentyl)-1-methylethenyl)]-14,16-dimethoxy-4,10,12,18,-tetramethyl-8-ethyl-15,19-epoxy-3H-pyrido[2,1-c][1,4]oxaazacyclotricosine-1,7,20,21(4H,23H)-tetrone [Compound 2] | effective |
